The values that follow come from patent US6894185B2, “Substituted chiral allosteric hemoglobin modifiers” (Allós Therapeutics, Inc., priority 1999, dated 2005).

T1 sequence (P69905 2-142 limits assumed): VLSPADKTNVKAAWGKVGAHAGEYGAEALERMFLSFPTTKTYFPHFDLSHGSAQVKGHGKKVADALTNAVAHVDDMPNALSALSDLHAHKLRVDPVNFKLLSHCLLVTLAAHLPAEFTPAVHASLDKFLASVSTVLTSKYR
T1 sequence (P68871 2-147 limits assumed): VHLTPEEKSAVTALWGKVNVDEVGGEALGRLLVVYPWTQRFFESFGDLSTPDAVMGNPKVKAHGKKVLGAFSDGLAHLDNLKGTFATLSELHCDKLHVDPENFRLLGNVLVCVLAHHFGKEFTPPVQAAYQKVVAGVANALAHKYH

The first assay addresses T1, hemoglobin (Homo sapiens, UniProt P68871+P69905).
T1 construct: The whole blood samples were collected in heparinized tubes from healthy volunteers; from tissue; host or cells: human whole blood (heparinized) from healthy volunteers
The experiment in a line: In vitro whole blood studies (multi-point tonometry and blood gas analysis). Type of assay: cell-based. The note with it: Table II. The procedure: Structure-allosteric activity relationships were determined from the synthetic chiral effectors comparing the shift in the oxygen binding curve of Hb solutions using a Hemox-Analyzer. In vitro biological activity testing in the presence of plasma proteins was also performed on selected enantiomers and racemates (multi-point tonometry and blood gas analysis) to screen for candidates with potential clinical use. SAR studies compared the degree in shift in P50 values, i.e., the partial pressure of molecular oxygen necessary to half-saturate hemoglobin. An effector that decreases Hb oxygen affinity increases the P50 value relative to the control. Thus, the activity or potency of each analog could be expressed by the ratio P50 (effector)/P50(control). Tables and II and III summarize the p50 values obtained using human whole blood, while Tables IV and V summarize the P50 and the Hill coefficient values (n50) at half-saturation obtained using Hemox-analyzer. The slope of the log of the oxygen binding curves is known as the Hill coefficient. The Hill coefficient measures the degree of cooperativity in binding for an allosteric protein, the normal range for human blood is 2.7-3.2. Table VI presents the results from the whole blood studies given as a ΔP50 and Hill coefficient (n50) values for the enantiomers and racemates.
The whole blood samples were collected in heparinized tubes from healthy volunteers and stored over ice. The sodium salts of the compounds were prepared as described earlier. A 200 mM stock solution of the effector was prepared in DMSO. A 5.0 mM test solution was prepared from 50 μL of the 200 mM test solution and 1950 μL of whole blood. The blood samples were incubated in IL 237 tonometers (Instrumentation Laboratories, Inc. Lexington, Mass.) for approximately 10-12 min at 37° C. and equilibrated at three separate concentrations of O2 (20%, 40%, and 60%). After equilibration at each concentration of O2, a sample was removed via syringe and aspirated into a IL 1420 Automated Blood Gas Analyzer (Instrumentation Laboratories, Inc. Lexington, Mass.) and a IL 482 and IL 682 Co-oximeter (Instrumentation Laboratories, Inc. Lexington, Mass.) to determine the pH, pCO2, pO2 and the hemoglobin oxygen saturation values (sO2), respectively. The measured values for pO2 and sO2 at each oxygen saturation level were then subjected to a non-linear regression analysis using the program Scientist (Micromath, Salt Lake City, Utah) to calculate the P50 and Hill coefficient values.
For the compound `Cc1cc(C)cc(NC(=O)Cc2ccc(OC(C)(C(=O)O)c3ccccc3)cc2)c1` (stereo not shown) [Compound 15], the “Whole Blood Δp50 mm Hg” value amounted to 12 mm Hg.
On to `Cc1cc(C)cc(NC(=O)Cc2ccc(OC(C(=O)O)c3ccccc3)cc2)c1` (stereo not shown) [Compound 14], for which the “Whole Blood Δp50 mm Hg” value was determined as 15 mm Hg.
On the same count and under the same terms, for `Cc1cc(C)cc(NC(=O)C(O)c2ccc(OC(C)(C)C(=O)O)cc2)c1` (stereo not shown) [Compound 12, 2-{4-[(3,5-Dimethyl-phenylcarbamoyl)-hydroxy-methyl]-phenoxy}-2-methyl-propionic acid] the value was 21 mm Hg; for `Cc1cc(C)cc(NC(=O)C2(C)CCc3cc(OC(C)(C)C(=O)O)c(C)c(C)c3O2)c1` (stereo not shown) [Compound 17], 1 mm Hg; for `CCC(Oc1ccc(CC(=O)Nc2cc(C)cc(C)c2)cc1)(C(=O)O)c1ccccc1` (stereo not shown) [Compound 16], 12 mm Hg.
Still for that read-out and setting: for `CCOC(C(=O)Nc1cc(C)cc(C)c1)c1ccc(OC(C)(C)C(=O)O)cc1` (stereo not shown) [Compound 13, 2-{4-[(3,5-Dimethyl-phenylcarbamoyl)-ethoxy-methyl]-phenoxy}-2-methyl-propionic acid] the value was 4 mm Hg.

The same assay, now with this note: Table III.
Turning to `Cc1cc(C)cc(NC(=O)Cc2ccc(OC3(C(=O)N[C@@H](Cc4ccccc4)C(=O)O)CCCC3)cc2)c1` [Compound 45, 1-[4-(((3,5-dimethylanilino)carbonyl)methyl)phenoxy]cyclopentanecarbonyl-L-phenylalanine], the “Whole Blood Δp50 mm Hg” value was 20 mm Hg.
For `Cc1cc(C)cc(NC(=O)Cc2ccc(OC3(C(=O)N[C@@H](C(=O)O)C(C)C)CCCC3)cc2)c1` [Compound 42, 1-[4-(((3,5-dimethylanilino)carbonyl)methyl)phenoxy]cyclopentanecarbonyl-D-valine], the “Whole Blood Δp50 mm Hg” value came out at 27 mm Hg.
Same read-out and setting: for `Cc1cc(C)cc(NC(=O)Cc2ccc(OC(C)(C)C(=O)NC(C(=O)O)C(C)C)cc2)c1` (stereo not shown) [Compound 25] the value was 20 mm Hg; for `Cc1cc(C)cc(NC(=O)Cc2ccc(OC3(C(=O)N[C@@H](Cc4c[nH]c5ccccc45)C(=O)O)CCCC3)cc2)c1` [Compound 47, 1-[4-(((3,5-dimethylanilino)carbonyl)methyl)phenoxy]cyclopentanecarbonyl-L-tryptophan], 20 mm Hg.
With `Cc1cc(C)cc(NC(=O)Cc2ccc(OC3(C(=O)N[C@@H](CSCc4ccccc4)C(=O)O)CCCC3)cc2)c1` [Compound 57, 1-[4-(((3,5-dimethylanilino)carbonyl)methyl)phenoxy]cyclopentanecarbonyl S-benzyl-L-cysteine], the “Whole Blood Δp50 mm Hg” value is on record as 7 mm Hg.
The same measure, in the same setting: for `Cc1cc(C)cc(NC(=O)Cc2ccc(OC3(C(=O)N[C@@H](CC(=O)O)C(=O)O)CCCC3)cc2)c1` [Compound 55, 1-[4-(((3,5-dimethylanilino)carbonyl)methyl)phenoxy]cyclopentanecarbonyl-L-aspartate] the value was 27 mm Hg; for `CSCCC(NC(=O)C(C)(C)Oc1ccc(CC(=O)Nc2cc(C)cc(C)c2)cc1)C(=O)O` (stereo not shown) [Compound 33, 2-(2-(4-((3,5-Dimethyl-phenylcarbamoyl)-methyl)-phenoxy)-2-methyl-propionylamino)-4-methylsulfanyl-butyric acid], 16 mm Hg.
In the case of “(2-(2-{4-[(3,5-Dimethyl-phenylcarbamoyl)-methyl]-phenoxy}-2-methyl-propionylamino)-4-pentanoic acid [Compound 29]”, the “Whole Blood Δp50 mm Hg” value worked out at 10 mm Hg.
Still for that read-out and setting: for `Cc1cc(C)cc(NC(=O)Cc2ccc(OC(C)(C)C(=O)NC(Cc3c[nH]c4ccccc34)C(=O)O)cc2)c1` (stereo not shown) [Compound 32] the value was 11 mm Hg; for `Cc1cc(C)cc(NC(=O)Cc2ccc(OC(C)(C)C(=O)NC(C)C(=O)O)cc2)c1` (stereo not shown) [Compound 22], 17 mm Hg.
Same read-out and setting: for `CSCC[C@H](NC(=O)C1(Oc2ccc(CC(=O)Nc3cc(C)cc(C)c3)cc2)CCCC1)C(=O)O` [Compound 52, 1-[4-(((3,5-dimethylanilino)carbonyl)methyl)phenoxy]cyclopentanecarbonyl-L-methionine] the value was 21 mm Hg; for `Cc1cc(C)cc(NC(=O)Cc2ccc(OC3(C(=O)N[C@H](CCCCNC(=O)OCc4ccccc4)C(=O)O)CCCC3)cc2)c1` [Compound 60, N^a-1-[4-(((3,5dimethylanilino)carbonyl)methyl)phenoxy]cyclopentane-carbonyl-N^e-benzyloxycarbonyl-D-lysine], 14 mm Hg.
As to `Cc1cc(C)cc(NC(=O)Cc2ccc(OC3(C(=O)N[C@@H](CCCCNC(=O)OCc4ccccc4)C(=O)O)CCCC3)cc2)c1` [Compound 59, N^a-1-[4-(((3,5dimethylanilino)carbonyl)methyl)phenoxy]cyclopentane-carbonyl-N^e-benzyloxycarbonyl-L-lysine], the “Whole Blood Δp50 mm Hg” value turned out to be 0.4 mm Hg.
The same measure, in the same setting: for “1-[4-(((3,5-dimethylanilino)carbonyl)methyl) phenoxy]cyclopentane carbonyl glycine [Compound 37]” the value was 25 mm Hg; for `Cc1cc(C)cc(NC(=O)Cc2ccc(OC3(C(=O)N[C@@H](CCC(=O)O)C(=O)O)CCCC3)cc2)c1` [Compound 48, 1-[4-(((3,5-dimethylanilino)carbonyl)methyl)phenoxy]cyclopentanecarbonyl-L-glutamate], 22 mm Hg.
Still for that read-out and setting: for `Cc1cc(C)cc(NC(=O)Cc2ccc(OC(C)(C)C(=O)NC(C(=O)O)C(C)C)cc2)c1` (stereo not shown) [Compound 26] the value was 20 mm Hg; for `Cc1cc(C)cc(NC(=O)Cc2ccc(OC3(C(=O)N[C@H](CCCCN)C(=O)O)CCCC3)cc2)c1` [Compound 61, 1-[4-(((3,5-dimethylanilino)carbonyl)methyl)phenoxy]cyclopentanecarbonyl-D-lysine], −0.2 mm Hg; for `Cc1cc(C)cc(NC(=O)Cc2ccc(OC(C)(C)C(=O)NC(Cc3ccccc3)C(=O)O)cc2)c1` (stereo not shown) [Compound 27], 10 mm Hg.
With `Cc1cc(C)cc(NC(=O)Cc2ccc(OC3(C(=O)N[C@H](C)C(=O)O)CCCC3)cc2)c1` [Compound 38, 1-[4-(((3,5-dimethylanilino)carbonyl)methyl)phenoxy]cyclopentanecarbonyl-D-alanine], the “Whole Blood Δp50 mm Hg” value came out at 30 mm Hg.
The same measure, in the same setting: for `CSCCC(NC(=O)C(C)(C)Oc1ccc(CC(=O)Nc2cc(C)cc(C)c2)cc1)C(=O)O` (stereo not shown) [Compound 34, 2-(2-(4-((3,5-Dimethyl-phenylcarbamoyl)-methyl)-phenoxy)-2-methyl-propionylamino)-4-methylsulfanyl-butyric acid] the value was 11 mm Hg.
Same read-out and setting: for `COC(=O)C(CCC(=O)O)NC(=O)C(C)(C)Oc1ccc(CC(=O)Nc2cc(C)cc(C)c2)cc1` (stereo not shown) [Compound 30] the value was 26 mm Hg; for `Cc1cc(C)cc(NC(=O)Cc2ccc(OC(C)(C)C(=O)NC(C)C(=O)O)cc2)c1` (stereo not shown) [Compound 23], 22 mm Hg.
Still for that read-out and setting: for `Cc1cc(C)cc(NC(=O)Cc2ccc(OC(C)(C)C(=O)N3CCCC3C(=O)O)cc2)c1` (stereo not shown) [Compound 35] the value was 12 mm Hg.
On to `COC(=O)C(CC(=O)O)NC(=O)C(C)(C)Oc1ccc(CC(=O)Nc2cc(C)cc(C)c2)cc1` (stereo not shown) [Compound 31], for which the “Whole Blood Δp50 mm Hg” value is listed as 21 mm Hg.
Take `Cc1cc(C)cc(NC(=O)Cc2ccc(OC(C)(C)C(=O)NC(C(=O)O)C(C)C)cc2)c1` (stereo not shown) [Compound 24]: the “Whole Blood Δp50 mm Hg” value stood at 22 mm Hg.
Same read-out and setting: for `Cc1cc(C)cc(NC(=O)Cc2ccc(OC(C)(C)C(=O)NC(Cc3ccccc3)C(=O)O)cc2)c1` (stereo not shown) [Compound 28] the value was 20 mm Hg; for `Cc1cc(C)cc(NC(=O)Cc2ccc(OC(C)(C)C(=O)NCC(=O)O)cc2)c1` [KDD4-24], 17 mm Hg; for `Cc1cc(C)cc(NC(=O)Cc2ccc(OC(C)(C)C(=O)NC(CSCc3ccccc3)C(=O)O)cc2)c1` (stereo not shown) [Compound 36, 3-Benzylsulfanyl-2-(2-(4-((3,5-Dimethyl)-phenylcarbamoyl)-methyl-phenoxy)-2-methyl-propionylamino)-propionic acid], 18 mm Hg.
